Measurements published in publication PMC6390093, “Structural basis of small RNA hydrolysis by oligoribonuclease (CpsORN) from Colwellia psychrerythraea strain 34H” (Scientific Reports, 2019).
Where a chain is given by its changes, count along the chain named. Names may count otherwise. Values belong to the molecule of their own block, whether it stands above or below them.

Experiments:
[1] = biological target: T1, CpsORN (Colwellia psychrerythraea, UniProt Q47VZ4); assay: X-ray crystal structure, […] Å; assay type: binding; conditions: 5 mM uridine added, 1 mM MnCl2; active site with Mn2+; two molecules per site; text describes a phosphate on U2
T1 construct: gene orn

[2] = biological target: T1, CpsORN; assay: spectrophotometric release of p-nitrophenolate at […] nm; assay type: biochemical; conditions: 3 mM substrate, 1 mM MnCl2, 50 mM Tris pH 8.0, 150 mM NaCl, 25 °C, 400 nM protein
[3] = biological target: T2, CpsORN (Colwellia psychrerythraea, UniProt Q47VZ4, D163A); assay: X-ray crystal structure, […] Å; assay type: binding; conditions: 5 mM pNP-TMP, 1 mM MnCl2 added, no metal seen in active site; two molecules per site; inactive mutant
T2 construct: gene orn

[4] = biological target: the molecule itself; assay: AUC; sedimentation velocity, 0.5 mg/mL CpsORN in 20 mM Tris-HCl pH 8.0, 150 mM NaCl, 45,000 rpm, monitored at 280 nm, SEDFIT
[5] = biological target: the molecule itself; assay: crystal structure; four crystal forms (unliganded, pNP-TMP-bound, linked uridine-bound, separated uridine-bound), sitting- or hanging-drop vapour diffusion at 293 K

T2 sequence (Q47VZ4 whole entry D163A): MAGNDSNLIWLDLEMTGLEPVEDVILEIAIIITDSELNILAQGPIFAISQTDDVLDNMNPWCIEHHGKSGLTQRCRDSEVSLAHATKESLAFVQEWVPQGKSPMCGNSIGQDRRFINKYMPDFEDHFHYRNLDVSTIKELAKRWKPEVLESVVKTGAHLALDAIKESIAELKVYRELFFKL

X-ray crystal structure, 2.2 Å [1]: 6A4F (separated uridine-bound CpsORN)
Molecule: O=c1ccn([C@@H]2O[C@H](COP(=O)(O)O)[C@@H](O)[C@H]2O)c(=O)[nH]1

Molecule: Cc1cn([C@H]2C[C@H](O)[C@@H](COP(=O)(O)Oc3ccc([N+](=O)[O-])cc3)O2)c(=O)[nH]c1=O [pNP-TMP]
spectrophotometric release of p-nitrophenolate at 420 nm [2]: CpsORN showed hydrolysis activity toward pNP-TMP in the presence of manganese or magnesium
X-ray crystal structure, 2.2 Å [3]: The pNP-TMP complexed D163A mutant CpsORN crystal contains two pNP-TMP molecules in the active site

B1: oligoribonuclease from Colwellia psychrerythraea strain 34H (CpsORN), wild-type (enzyme, UniProt Q47VZ4 1-181, looked up)
chain: MAGNDSNLIWLDLEMTGLEPVEDVILEIAIIITDSELNILAQGPIFAISQTDDVLDNMNPWCIEHHGKSGLTQRCRDSEVSLAHATKESLAFVQEWVPQGKSPMCGNSIGQDRRFINKYMPDFEDHFHYRNLDVSTIKELAKRWKPEVLESVVKTGAHLALDDIKESIAELKVYRELFFKL
notes: oligoribonuclease (CpsORN) of Colwellia psychrerythraea strain 34H, full-length gene orn, residues 1-181; pET-28a construct with a thrombin site after the His tag; also called unliganded CpsORN; source: E. coli BL21(DE3), purified (Ni-NTA, thrombin cleavage, Superdex 200); not shown: His6, N-terminal, cleaved
stoichiometry N [4]: 2

B2: CpsORN D163A inactive mutant (enzyme, Colwellia psychrerythraea strain 34H, UniProt Q47VZ4 1-181, looked up)
chain: B1 chain with D163A
notes: oligoribonuclease (CpsORN) of Colwellia psychrerythraea strain 34H, full-length gene orn with Asp163 replaced by alanine; Made from the wild-type plasmid and purified by the same procedure as the wild type; also called D163A mutant; source: E. coli BL21(DE3), purified (Ni-NTA, thrombin cleavage, Superdex 200); not shown: His6, N-terminal, cleaved
binding result [5]: binds
